Source: US20020058696A1, “Chelate compound-containing antibacterial agent for helicobacter pylori” (DIRECTOR OF NTL. INST. OF AGROBIOLOGICAL RESOURCES , …, priority 2000, published 2002)

Experiments:
[1] = test system: Helicobacter pylori ATCC 43504 strain
Experimental: Helicobacter pylori (ATCC 43504 strain, purchased from American Type Culture Collection) was cultured with use of a 96-well plate. […] After inoculation of Helicobacter pylori, the plate was introduced in a sealed vessel of 2.5 liter volume, into which Anaero Pack-Helico (made by Mitsubishi Gas Chemical), an agent for absorbing oxygen and generating carbon dioxide gas, was also introduced, and cultured for 5 days under an anaerobic condition at 37° C.
Growth of Helicobacter pylori was determined by means of a 96-well plate reader with use of a 540 nm or 595 nm filter. Herein, as a control for absorbance determination, a medium without EDTA was used.

[2] = FAO/WHO Codex Alimentarius Commission, 1973; cited from earlier work

Row | SMILES | concentration at which growth of Helicobacter pylori is inhibited ([1]; ATCC 43504 strain, medium pH 8.0, cultured 5 days at 37° C under anaerobic condition, turbidity at 540 nm or 595 nm against control medium, from FIG. 1 / FIG. 2) [mM] | amount to be taken to inhibit growth of Helicobacter pylori ([1]; calculated for a human stomach volume of about 1.5 L, amount of the salt) [mg] | amount to be taken to inhibit growth of Helicobacter pylori, as free EDTA ([1]; calculated for a human stomach volume of about 1.5 L, expressed as free EDTA) [mg] | growth-inhibiting concentration converted into ([1]; conversion of 0.025-1 mM using molecular weight 372Da) [mg/L] | acceptable daily intake (ADI) as a food additive [2]
1 | O=C([O-])CN(CCN(CC(=O)O)CC(=O)O)CC(=O)[O-].[Na+].[Na+] [disodium ethylenediaminetetraacetate] | 0.025 to 1 | 14 to 558 | 11 to 438 | 9.3 to 372 | –
2 | O=C(O)CN(CCN(CC(=O)O)CC(=O)O)CC(=O)O [EDTA, Ethylenediaminetetraacetic acid] | – | – | – | – | 2.5 mg/kg of weight
